Experimental data: patent US12622910B2, “Inhibitors of Bruton's tyrosine kinase and methods of their use” (Janssen Pharmaceutica NV, priority 2021, dated 2026)

How the values were obtained:
[1] = Metabolic stability in liver microsomes; assay type: in vitro ADME, mouse
Protocol: (§1) Additional Data on Preclinical PK Profile—Protein binding of the compound of Formula (III) was studied using an equilibrium dialysis method in plasma from human, cynomolgus monkey, beagle dog, Sprague Dawley rat, CD-1 mouse, and guinea pig at 0.25, 2.5, and 25 μM. […] In human and monkey, the plasma protein binding was concentration dependent. […] Free fraction of the compound of Formula (III) in liver microsomes from various species ranged from 75.1% to 87.9% at 0.25 mg/mL and from 58.9% to 86.5% at 1.0 mg/mL (Table 17). […] In hepatocytes, the compound of Formula (III) turnover followed a similar trend, with T1/2 ranging from 75.3 minutes in monkey to 278.1 minutes in human.

[2] = Rat collagen-induced arthritis; assay type: in vivo, female Wistar rat; conditions: female, Wistar, rat, plasma, oral, 2 mg/kg/day
Source text: (§2) In vivo activity in collagen-induced arthritis—A rat CIA model in female Wistar rats was used to define the impact of the compound of Formula (III) on chronic inflammation and derive PK-PD correlations (FIG. 16). YiSaipu™ (recombinant human tumor necrosis factor-α receptor (type II): IgGI Fc (rhTNFR:Fc) fusion protein; biogeneric version of Etanercept™) was used as a comparator. […] The doses required to achieve meaningful efficacy correlated with a BTK target occupancy threshold of >75% over 24 hours based on the preceding target engagement studies.
(§3) Rat collagen-induced arthritis—An emulsion was prepared on ice from equal volumes of type II collagen (CII; Chondrex) (2 mg/mL in 100 mM acetic acid (Sinopharm Chemical Reagent Co. Ltd)) and Incomplete Freund's Adjuvant (IFA) (Sigma-Aldrich) by high speed homogenization (28,000 rpm) for 3 min (FLUKO Equipment Shanghai Co. Ltd). Eighty-two rats were used in the study. Before immunization, 6 rats were randomly selected as a naïve group. The other 76 rats were anesthetized with inhalational isoflurane, and injected intradermally at the base of the tail with 0.2 mL of the emulsion (1 mg/mL CII/IFA), 2 to 3 cm from the body on day 0 and day 7. On day 10, the 56 rats with the most developed arthritis based on paw volume measurements out of the 76 rats that were immunized were divided into 7 groups (n=8) with a stratified random block design according to average hind paw volume of each rat. Each group with similar starting paw inflammation was administered with vehicle or different doses of the compound of Formula (III) (0.3, 1, 2, 3, 10 mg/kg, PO, QD, days 10-17) or YiSaiPu (biosimilar etarnacept) (15 mg/kg, IP, QOD, days 10-16).
(§4) Hind paws volume and body weight were monitored daily for 7 consecutive days (days 10-16) after initiation of test article dosing. Left and right paw volumes in each rat were measured by a Plethysmometer (Catalog No. 7140, Ugo Basile. Italy). Blood (about 300 μL) in the groups treated with the compound of Formula (III) was collected into heparinized tubes via retro-orbital bleeding under isoflurane anesthesia on day 17-18. For groups treated with the compound of Formula (III), the composite collection time points were 0, 0.5, 1, 2, 4, 8, 12 and 24 hrs after last administration of the compound of Formula (III). After collection, blood samples were centrifuged (5,000 rpm for 10 min), plasma collected, and the concentrations of the compound of Formula (III) were determined using liquid chromatography mass spectrophotometry.

hind paw inflammation = experiment: Rat collagen-induced arthritis; assay type: in vivo, female Wistar rat
Source text: as §2, §3, §4

[3] = Protein binding in RPMI culture media containing 10% FBS; assay type: in vitro ADME; conditions: bovine, read-out: % free in RPMI culture media containing 10% FBS
[4] = system: TMD8 (CD79b/Myd88/A20 mutant); experiment: Antiproliferative activity, 8 days; assay type: cell-based; conditions: Homo sapiens, TMD8, 192 h, n = 4
Protocol: (§5) In Vitro Activity in DLBCL Cell Lines—NFκB signaling regulates the secretion of multiple cytokines, including interleukin (IL)-6 and IL-10. Secretion of IL-6 and -10 by ABC-DLBCL OCI-LY-10 cells was measured using a MesoScale assay. […] To determine the anti-proliferative activity of the compound of formula (III), several ABC-DLBCL cell lines—OCI-LY-3, OCI-LY-10, TMD8, and HBL-1—were treated for 8 days. […] The OCI-LY-3 cell line, which harbors a CARD11 mutation downstream of BTK in the NF-κB signaling pathway, was completely insensitive to the compound of Formula (III) up to 2 μM. In 2 experiments, OCI-LY-3 cells were insensitive to the compound of Formula (III) at all concentrations up to 10 μM.

[5] = system: OCI-LY10 (CD79b/Myd88/A20 mutant); experiment: Antiproliferative activity, 8 days; assay type: cell-based; conditions: Homo sapiens, OCI-Ly10, 192 h, n = 4
Protocol: as §5

[6] = system: HBL1 (CD79b/Myd88/A20 mutant); experiment: Antiproliferative activity, 8 days; assay type: cell-based; conditions: Homo sapiens, HBL1, 192 h, n = 4
Protocol: as §5

BTK = BTK (Homo sapiens, UniProt Q06187); experiment: Ramos B cell BTK occupancy assay (probe ELISA); assay type: cell-based; design: endogenous in cells
Chain of BTK (Q06187 whole entry): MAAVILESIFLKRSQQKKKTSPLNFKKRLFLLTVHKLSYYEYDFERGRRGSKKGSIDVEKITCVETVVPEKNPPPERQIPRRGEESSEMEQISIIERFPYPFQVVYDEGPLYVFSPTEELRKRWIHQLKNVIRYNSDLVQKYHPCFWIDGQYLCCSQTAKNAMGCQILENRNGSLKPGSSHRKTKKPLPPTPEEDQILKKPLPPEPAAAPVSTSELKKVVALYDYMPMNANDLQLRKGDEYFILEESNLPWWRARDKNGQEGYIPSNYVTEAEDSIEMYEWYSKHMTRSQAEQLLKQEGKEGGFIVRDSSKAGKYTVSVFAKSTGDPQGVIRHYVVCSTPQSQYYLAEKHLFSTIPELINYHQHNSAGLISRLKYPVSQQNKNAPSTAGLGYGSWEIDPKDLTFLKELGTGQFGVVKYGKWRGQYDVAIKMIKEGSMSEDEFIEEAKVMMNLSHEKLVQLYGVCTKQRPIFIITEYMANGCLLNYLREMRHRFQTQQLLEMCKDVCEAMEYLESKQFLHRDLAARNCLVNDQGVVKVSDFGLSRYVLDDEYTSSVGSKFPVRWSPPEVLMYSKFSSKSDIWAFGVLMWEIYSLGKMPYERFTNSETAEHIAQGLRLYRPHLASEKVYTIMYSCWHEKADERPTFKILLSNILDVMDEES
Protocol: In vitro cellular target engagement-The dose-response of BTK occupancy was assessed using a Ramos B cell occupancy assay. Irreversible reaction with […] excludes it from further reaction and enables selective detection of the free (unreacted) BTK with a chemical probe, which utilizes the same binding site and reaction mechanism as the compound of formula (III). The probe carries a biotin sidechain to tag free BTK with an affinity handle to enable detection by ELISA.

[7] = Preclinical PK, oral and IV; conditions: dog, in vivo
[8] = Plasma protein binding, equilibrium dialysis; assay type: in vitro ADME, human
Protocol: as §1

In the case of C=CC(=O)N[C@H]1CCC[C@H]1NC(=O)c1sc2nccc3c2c1NC(=O)N3c1cnc(CC(C)C)cc1C (atropisomer, axis not shown) [compound of Formula (III), N-((1R,2S)-2-Acrylamidocyclopentyl)-5-(S)-(6-isobutyl-4-methylpyridin-3-yl)-4-oxo-4,5-dihydro-3H-1-thia-3,5,8-triazaacenaphthylene-2-carboxamide], the “Extraction Ratio, liver microsomes” value ([1]; Mouse) is reported as 0.79, the microsomal CLint ([1]; mouse, liver microsomes) is reported as 142 µL/min/mg and the half-life ([1]; mouse, liver microsomes, read-out: T1/2, liver microsomes) is reported as 4.9 min. For the same compound, the AUC(0-t) ([2]; read-out: AUClast at efficacious dose) was 324 ng·h/mL, the Cmax ([2]; read-out: Cmax at efficacious dose) was 46.6 ng/mL and the “effect on hind paw inflammation” value (hind paw inflammation; 0.3, 1, 2, 3, 10 mg/kg/day PO QD) was “attenuated hind paw inflammation in a dose-dependent manner”. For the same compound, the “dose with effect on inflammation equivalent to anti-TNFα comparator” value (hind paw inflammation; PO QD) was at least 2 mg/kg/day, the fraction unbound at 1 μM [3] was 0.317 and the IC50 [4] was 34 nM. The IC50 [5] was 18 nM, the IC50 [6] was 30 nM and the “time to full BTK occupancy” value (BTK; 100 and 300 nM) was at most 40 min. It also gave an IC50 (BTK; Ramos B cells, n=11, read-out: BTK occupancy IC50 (mean±SD)) of 21 ± 7 nM, a clearance ([7]; iv) of 11 ± 3 mL/min/kg and a half-life ([7]; iv, read-out: IV T1/2 (converted)) of 66 ± 6 min. It also gave a Vd ([7]; iv, read-out: Vss) of 0.8 ± 0.2 L/kg, a Cmax ([7]; oral) of 890 ± 286 ng/mL and a Tmax ([7]; oral) of 48 ± 18 min. The AUC(0-inf) ([7]; oral, read-out: Oral AUCinf) was 1960 ± 421 ng·h/mL, the “% Free in plasma” value ([8]; 2.5 μM) was 3.1% and the fraction unbound at 0.25 μM ([8]; human, plasma, 0.25 μM, read-out: % Free in plasma) was 0.0169. The fraction unbound at 25 μM ([8]; human, plasma, 25 μM, read-out: % Free in plasma) was 0.0463.
